Measurements as given in patent publication US9828379B2 (priority 2013, dated 2017).
In brackets after ≈: the same amount, converted by molar mass.

Columns and labels:
MAGL [1] = biological target: T1, MAGL (Mus musculus, UniProt O35678); assay: In vitro competitive activity-based protein profiling (Table 2, % inhibition at 1 μM); assay type: biochemical; settings: read-out: % Inhibition at 1 μM MAGL
T1 sequence (O35678 1-303): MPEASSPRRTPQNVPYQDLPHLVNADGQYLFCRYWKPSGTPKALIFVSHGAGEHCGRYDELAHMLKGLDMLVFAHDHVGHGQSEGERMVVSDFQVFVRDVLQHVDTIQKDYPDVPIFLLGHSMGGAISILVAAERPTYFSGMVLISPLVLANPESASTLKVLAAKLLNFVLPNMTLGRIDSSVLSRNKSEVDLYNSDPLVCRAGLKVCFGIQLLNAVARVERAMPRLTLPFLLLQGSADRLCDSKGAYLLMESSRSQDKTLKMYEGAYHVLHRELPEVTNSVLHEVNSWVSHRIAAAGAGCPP
Description: After 30 min, FP—Rh (1.0 μL, 50 μM in DMSO) was added and the mixture was incubated for another 30 min at 37° C. Reactions were quenched with SDS loading buffer (50 μL-4×) and run on SDS-PAGE.
Cell lysates were diluted with mock proteomes for use in competitive ABPP experiments.

[2] = tested on: Mycobacterium tuberculosis H37Rv (pFCA-luxAB); assay: microbe, parasite or virus in culture; assay type: cell-based; settings: read-out: % Inhibition at 100 μM Mtb LORA
FAAH [3] = biological target: T2, FAAH (Mus musculus, UniProt O08914); assay: In vitro competitive activity-based protein profiling (Table 2, % inhibition at 1 μM); assay type: biochemical; settings: read-out: % Inhibition at 1 μM FAAH
T2 sequence (O08914 1-579): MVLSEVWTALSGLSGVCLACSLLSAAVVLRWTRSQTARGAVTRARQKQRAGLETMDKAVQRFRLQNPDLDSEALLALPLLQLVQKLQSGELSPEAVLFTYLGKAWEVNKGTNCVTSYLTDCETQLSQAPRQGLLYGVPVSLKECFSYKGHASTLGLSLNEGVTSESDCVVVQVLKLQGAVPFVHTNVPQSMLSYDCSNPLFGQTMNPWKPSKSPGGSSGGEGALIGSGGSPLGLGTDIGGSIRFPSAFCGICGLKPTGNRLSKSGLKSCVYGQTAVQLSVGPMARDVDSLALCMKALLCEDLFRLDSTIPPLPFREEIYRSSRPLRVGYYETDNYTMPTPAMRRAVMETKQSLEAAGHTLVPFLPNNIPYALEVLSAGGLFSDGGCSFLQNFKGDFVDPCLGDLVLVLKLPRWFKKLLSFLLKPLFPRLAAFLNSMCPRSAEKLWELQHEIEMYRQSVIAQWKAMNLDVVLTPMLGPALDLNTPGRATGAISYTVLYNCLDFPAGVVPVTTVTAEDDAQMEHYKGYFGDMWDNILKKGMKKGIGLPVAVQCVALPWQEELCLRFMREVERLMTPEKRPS

ABHD6 [4] = biological target: T3, ABHD6 (Mus musculus, UniProt Q8R2Y0); assay: as above; assay type: biochemical; settings: read-out: % Inhibition at 1 μM ABHD6
T3 sequence (Q8R2Y0 1-336): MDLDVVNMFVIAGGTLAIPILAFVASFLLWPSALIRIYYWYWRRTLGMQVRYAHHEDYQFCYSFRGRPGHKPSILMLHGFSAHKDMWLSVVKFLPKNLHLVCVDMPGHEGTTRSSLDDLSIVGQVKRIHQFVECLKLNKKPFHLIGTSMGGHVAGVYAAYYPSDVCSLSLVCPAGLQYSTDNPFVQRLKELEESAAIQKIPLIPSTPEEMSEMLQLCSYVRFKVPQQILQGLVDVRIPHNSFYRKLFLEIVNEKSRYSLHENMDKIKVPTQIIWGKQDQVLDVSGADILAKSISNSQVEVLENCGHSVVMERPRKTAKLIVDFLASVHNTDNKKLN

[5] = tested on: Mycobacterium Tuberculosis (Mtb); assay: Microplate Alamar Blue assay (MABA) against Mtb; assay type: cell-based
Description: The activity of disclosed compounds against Mtb can be assessed according to a method based on the microplate Alamar Blue® assay (MABA) (Collins and Franzblau, 1997. Microplate alamar blue assay versus BACTEC 460 system for high-throughput screening of compounds against Mycobacterium tuberculosis and Mycobacterium avium. Antimicrobial Agents and Chemotherapy 41, 1004-1009). Briefly, stock solutions of disclosed compounds are prepared and added to, for example, two wells of a microplate. One well is inoculated with broth containing Mtb. The second well receives only media in order to assess background fluorescence. For MICs, serial dilutions are performed in media. Each microplate is incubated for a period of time. After incubation, one control growth is developed with a mixture of Alamar Blue® solution and Tween 80. The plates are then reincubated. Afterwards, if the well turns pink, the dye mixture is placed into all wells and the plates are reincubated for an additional period of time. The mean fluorescence units (FU) of media-only wells are subtracted from all other wells. The results are expressed in terms of % inhibition defined as 1-(test well FU/mean FU of triplicate bacteria-only wells)×100. The MIC is defined as the lowest concentration effecting a reduction in fluorescence of ≧90% relative to bacteria-only controls.

Mouse brain MAGL = biological target: T4, Mouse brain MAGL (Mus musculus, UniProt O35678); assay: Mouse brain proteomes from inhibitor treated mice (oral gavage, ABPP analysis); assay type: in vivo; settings: p.o., sacrificed 4 h following administration
T4 construct: from tissue; host or cells: brain of wild-type C57Bl/6J mice dosed by oral gavage
T4 sequence (O35678 1-303): T1 sequence (O35678 1-303)

MAGL [6] = biological target: T1, MAGL; assay: biochemical; settings: mouse; in vitro competitive ABPP; read-out: Mouse (IC50 value, nM) MAGL
FAAH [7] = biological target: T2, FAAH; assay: biochemical; settings: in vitro competitive ABPP
ABHD6 [8] = biological target: T3, ABHD6; assay: biochemical; settings: in vitro competitive ABPP

| SMILES | inhibition at 1 µM (MAGL [1]) | inhibition at 100 µM [2] | inhibition at 1 µM (FAAH [3]) | inhibition at 1 µM (ABHD6 [4]) | MIC [5] | inhibition at 5 mg/kg (Mouse brain MAGL) | IC50 (MAGL [6]) | IC50 (FAAH [7]) | IC50 (ABHD6 [8]) |
| --- | --- | --- | --- | --- | --- | --- | --- | --- | --- |
| CNC(=O)C(OC(=O)N1CC2CN(Cc3ccc(-c4ccccc4)cc3)CC2C1)C(F)(F)F (centres unmarked) [Example 126, 2,2,2-Trifluoro-1-(methylcarbamoyl)ethyl 5-[(4-phenylphenyl)methyl]-octahydropyrrolo[3,4-c]pyrrole-2-carboxylate] | 25 to 75% | > 80% | 25 to 75% | < 25% | 51 to 100 µM (≈ 23.5 to 46.1 µg/mL) | – | – | – | – |
| CNC(=O)C(OC(=O)N1CC2CN(C(c3ccc(Cl)cc3)c3ccc(Cl)cc3)CC2C1)C(F)(F)F (centres unmarked) [Example 125, 2,2,2-Trifluoro-1-(methylcarbamoyl)ethyl 5-[bis(4-chlorophenyl)methyl]-octahydropyrrolo[3,4-c]pyrrole-2-carboxylate] | 25 to 75% | > 80% | < 25% | < 25% | ≤ 50 µM | – | – | – | – |
| O=C(OC(C(F)(F)F)C(F)(F)F)N1CC2CN(Cc3cccc(N4CCC5(CCOC5)C4)c3C(F)(F)F)CC2C1 (centres unmarked) [Example 128, 1,1,1,3,3,3-hexafluoropropan-2-yl 5-[(3-[2-oxa-7-azaspiro[4.4]nonan-7-yl]-2-(trifluoromethyl)phenyl)methyl]-octahydropyrrolo[3,4-c]pyrrole-2-carboxylate] | > 75% | – | < 25% | < 25% | – | ≤ 25% | < 100 nM | 1000 to 10000 nM | 1000 to 10000 nM |
| O=C(OC(C(F)(F)F)C(F)(F)F)N1CC2CN(Cc3cc(CN4CCOCC4)ccc3OC(F)(F)F)CC2C1 (centres unmarked) [Example 188, 1,1,1,3,3,3-hexafluoropropan-2-yl 5-(5-(morpholinomethyl)-2-(trifluoromethoxy)benzyl)hexahydropyrrolo[3,4-c]pyrrole-2(1H)-carboxylate] | > 75% | – | < 25% | < 25% | – | ≥ 75% | < 100 nM | 1000 to 10000 nM | 1000 to 10000 nM |
| CCc1cc(CN2CC3CN(C(=O)OC(C(F)(F)F)C(F)(F)F)CC3C2)n(-c2ccccc2Cl)n1 (centres unmarked) [Example 169, 1,1,1,3,3,3-hexafluoropropan-2-yl 5-[[1-(2-chlorophenyl)-3-ethyl-1H-pyrazol-5-yl]methyl]-octahydropyrrolo[3,4-c]pyrrole-2-carboxylate] | > 75% | – | < 25% | 25 to 75% | – | ≤ 25% | < 100 nM | 1000 to 10000 nM | 1000 to 10000 nM |
| O=C(OC(C(F)(F)F)C(F)(F)F)N1CC2CN(Cc3cccc(C(F)(F)F)c3N3CCOCC3)CC2C1 (centres unmarked) [Example 45, 1,1,1,3,3,3-Hexafluoropropan-2-yl 5-[[2-(morpholin-4-yl)-3-(trifluoromethyl)phenyl]methyl]-octahydropyrrolo[3,4-c]pyrrole-2-carboxylate] | > 75% | – | < 25% | < 25% | – | ≥ 75% | < 100 nM | 1000 to 10000 nM | 1000 to 10000 nM |
| O=C(OC(C(F)(F)F)C(F)(F)F)N1CC2CN(Cc3cccc(Cl)c3N3CCC4(CCOC4)C3)CC2C1 (centres unmarked) [Example 42, 1,1,1,3,3,3-Hexafluoropropan-2-yl 5-[(3-chloro-2-[2-oxa-7-azaspiro[4.4]nonan-7-yl]phenyl)methyl]-octahydropyrrolo[3,4-c]pyrrole-2-carboxylate] | > 75% | – | < 25% | < 25% | – | 25 to 75% | < 100 nM | 1000 to 10000 nM | 1000 to 10000 nM |
| CCn1ncc(CN2CC3CN(C(=O)OC(C(F)(F)F)C(F)(F)F)CC3C2)c1C(=O)NCCc1cccc(Cl)c1 (centres unmarked) [Example 180, 1,1,1,3,3,3-hexafluoropropan-2-yl 5-((5-((3-chlorophenethyl)carbamoyl)-1-ethyl-1H-pyrazol-4-yl)methyl)hexahydropyrrolo[3,4-c]pyrrole-2(1H)-carboxylate] | > 75% | – | < 25% | < 25% | – | ≤ 25% | < 100 nM | > 10000 nM | 1000 to 10000 nM |
| O=C(OC(C(F)(F)F)C(F)(F)F)N1CC2CN(Cc3ccc(Cl)cc3N3CCOC4CCCC43)CC2C1 (centres unmarked) [Example 4, 1,1,1,3,3,3-Hexafluoropropan-2-yl 5-(4-chloro-2-(hexahydrocyclopenta[b][1,4]oxazin-4(4aH)-yl)benzyl)hexahydropyrrolo[3,4-c]pyrrole-2(1H)-carboxylate] | > 75% | – | < 25% | < 25% | – | ≤ 25% | 100 to 1000 nM | 1000 to 10000 nM | 1000 to 10000 nM |
| CCn1cc(CN2CC3CN(C(=O)OC(C(F)(F)F)C(F)(F)F)CC3C2)c(-c2ccccc2N2CCCCC2)n1 (centres unmarked) [Example 130, 1,1,1,3,3,3-hexafluoropropan-2-yl 5-([1-ethyl-3-[2-(piperidin-1-yl)phenyl]-1H-pyrazol-4-yl]methyl)-octahydropyrrolo[3,4-c]pyrrole-2-carboxylate] | > 75% | – | < 25% | < 25% | – | ≤ 25% | < 100 nM | > 10000 nM | 1000 to 10000 nM |
| CCn1cc(CN2CC3CN(C(=O)OC(C(F)(F)F)C(F)(F)F)CC3C2)c(-c2cccnc2)n1 (centres unmarked) [Example 71, 1,1,1,3,3,3-Hexafluoropropan-2-yl 5-[[1-ethyl-3-(pyridin-3-yl)-1H-pyrazol-4-yl]methyl]-octahydropyrrolo[3,4-c]pyrrole-2-carboxylate] | > 75% | – | < 25% | 25 to 75% | – | 25 to 75% | < 100 nM | 1000 to 10000 nM | 1000 to 10000 nM |
| Cn1cc(CN2CC3CN(C(=O)OC(C(F)(F)F)C(F)(F)F)CC3C2)c(-c2ccccc2Cl)n1 (centres unmarked) [Example 51, 1,1,1,3,3,3-Hexafluoropropan-2-yl 5-[[3-(2-chlorophenyl)-1-methyl-1H-pyrazol-4-yl]methyl]-octahydropyrrolo[3,4-c]pyrrole-2-carboxylate] | > 75% | – | < 25% | 25 to 75% | – | ≤ 25% | < 100 nM | > 10000 nM | 1000 to 10000 nM |
